≈ marks a conversion by molar mass, not a printed value.
Target: T1, intestinal α-glucosidase
T1 construct: gene MAL12; human 5NN8 only used for docking
Assay: sucrose hydrolysis, GOD-POD glucose read-out at […] nm
Type: biochemical
Conditions: sucrose as substrate; phosphate buffer pH 7.5; 37 °C

In the case of `C[C@H]1O[C@H](O[C@H]2[C@H](O)[C@@H](O)[C@@H](O[C@H]3[C@H](O)[C@@H](O)C(O)O[C@@H]3CO)O[C@@H]2CO)[C@H](O)[C@@H](O)[C@@H]1N[C@H]1C=C(CO)[C@@H](O)[C@H](O)[C@H]1O` (stereo partly shown) [acarbose], the “IC50” value is reported as 0.089 ± 0.004 µg/mL (≈ 0.138 µM).
